Assay results: ChEMBL document CHEMBL1681728, “An automated, polymer-assisted strategy for the preparation of urea and thiourea derivatives of 15-membered azalides as potential antimalarial chemotherapeutics” (Bioorg Med Chem, 2011)

Assays:
Format in all cases: functional, organism-based
Plasmodium falciparum [1] = experiment: Antimalarial activity against multidrug-resistant Plasmodium falciparum TM91C235 assessed as inhibition of [3H]hypoxanthine incorporation after 96 hrs by microtiter plate scintillation counting
Plasmodium falciparum [2] = experiment: Antimalarial activity against chloroquine-,pyrimethamine-resistant Plasmodium falciparum W2 assessed as inhibition of [3H]hypoxanthine incorporation after 96 hrs by microtiter plate scintillation counting
Plasmodium falciparum [3] = experiment: Antimalarial activity against chloroquine-sensitive Plasmodium falciparum D6 assessed as inhibition of [3H]hypoxanthine incorporation after 96 hrs by microtiter plate scintillation counting

Row | SMILES | IC50 (Plasmodium falciparum [1]) | IC50 (Plasmodium falciparum [2]) | IC50 (Plasmodium falciparum [3])
1 | CCc1ccc(NC(=O)NCCCN2C[C@H](C)C[C@@](C)(O)[C@H](O[C@@H]3O[C@H](C)C[C@H](N(C)C)[C@H]3O)[C@@H](C)[C@H](O[C@H]3C[C@@](C)(OC)[C@@H](O)[C@H](C)O3)[C@@H](C)C(=O)O[C@H](CC)[C@@](C)(O)[C@H](O)[C@H]2C)cc1 | 99.3 nM | 73.8 nM | 226 nM
2 | CC[C@H]1OC(=O)[C@H](C)[C@@H](O[C@H]2C[C@@](C)(OC)[C@@H](O)[C@H](C)O2)[C@H](C)[C@@H](O[C@@H]2O[C@H](C)C[C@H](N(C)C)[C@H]2O)[C@](C)(O)C[C@@H](C)CN(CCCNC(=S)Nc2ccc(-n3cccn3)cc2)[C@H](C)[C@@H](O)[C@]1(C)O | 101 nM | 109 nM | 160 nM
3 | CC[C@H]1OC(=O)[C@H](C)[C@@H](O[C@H]2C[C@@](C)(OC)[C@@H](O)[C@H](C)O2)[C@H](C)[C@@H](O[C@@H]2O[C@H](C)C[C@H](N(C)C)[C@H]2O)[C@](C)(O)C[C@@H](C)CN(CCCNC(=S)Nc2cccc3nsnc23)[C@H](C)[C@@H](O)[C@]1(C)O | 101 nM | 88.2 nM | 176 nM
4 | CC[C@H]1OC(=O)[C@H](C)[C@@H](O[C@H]2C[C@@](C)(OC)[C@@H](O)[C@H](C)O2)[C@H](C)[C@@H](O[C@@H]2O[C@H](C)C[C@H](N(C)C)[C@H]2O)[C@](C)(O)C[C@@H](C)CN(CCCNC(=S)NCC2CC3CCC2C3)[C@H](C)[C@@H](O)[C@]1(C)O (stereo not given in full) | 102 nM | 46.5 nM | 249 nM
5 | CCOC(=O)c1ccc(NC(=S)NCCCN2C[C@H](C)C[C@@](C)(O)[C@H](O[C@@H]3O[C@H](C)C[C@H](N(C)C)[C@H]3O)[C@@H](C)[C@H](O[C@H]3C[C@@](C)(OC)[C@@H](O)[C@H](C)O3)[C@@H](C)C(=O)O[C@H](CC)[C@@](C)(O)[C@H](O)[C@H]2C)cc1 | 107 nM | 70.9 nM | 121 nM
6 | CC[C@H]1OC(=O)[C@H](C)[C@@H](O[C@H]2C[C@@](C)(OC)[C@@H](O)[C@H](C)O2)[C@H](C)[C@@H](O[C@@H]2O[C@H](C)C[C@H](N(C)C)[C@H]2O)[C@](C)(O)C[C@@H](C)CN(CCCNC(=S)Nc2ccc(Cl)cc2)[C@H](C)[C@@H](O)[C@]1(C)O | 108 nM | 53.4 nM | 188 nM
7 | CC[C@H]1OC(=O)[C@H](C)[C@@H](O[C@H]2C[C@@](C)(OC)[C@@H](O)[C@H](C)O2)[C@H](C)[C@@H](O[C@@H]2O[C@H](C)C[C@H](N(C)C)[C@H]2O)[C@](C)(O)C[C@@H](C)CN(CCCNC(=S)Nc2cccc(F)c2)[C@H](C)[C@@H](O)[C@]1(C)O | 116 nM | 200 nM | 511 nM
8 | CC[C@H]1OC(=O)[C@H](C)[C@@H](O[C@H]2C[C@@](C)(OC)[C@@H](O)[C@H](C)O2)[C@H](C)[C@@H](O[C@@H]2O[C@H](C)C[C@H](N(C)C)[C@H]2O)[C@](C)(O)C[C@@H](C)CN(CCCNC(=O)Nc2cc(F)ccc2C)[C@H](C)[C@@H](O)[C@]1(C)O | 117 nM | 53.2 nM | 396 nM
9 | CC[C@H]1OC(=O)[C@H](C)[C@@H](O[C@H]2C[C@@](C)(OC)[C@@H](O)[C@H](C)O2)[C@H](C)[C@@H](O[C@@H]2O[C@H](C)C[C@H](N(C)C)[C@H]2O)[C@](C)(O)C[C@@H](C)CN(CCCNC(=O)Nc2cccc(Cl)c2)[C@H](C)[C@@H](O)[C@]1(C)O | 118 nM | 187 nM | 455 nM
10 | CC[C@H]1OC(=O)[C@H](C)[C@@H](O[C@H]2C[C@@](C)(OC)[C@@H](O)[C@H](C)O2)[C@H](C)[C@@H](O[C@@H]2O[C@H](C)C[C@H](N(C)C)[C@H]2O)[C@](C)(O)C[C@@H](C)CN(CCCNC(=S)Nc2ccc(OC(F)F)cc2)[C@H](C)[C@@H](O)[C@]1(C)O | 121 nM | 63 nM | 216 nM
